Experimental data from patent US12343336B2, “Increasing cancer cells' sensitivity to tumor treating fields (TTFields) by inhibiting IL11 activity” (Novocure GmbH, priority 2019, dated 2025).

Key:
[1] = system: N1S1 liver carcinoma cells; assay: N1S1 tumor volume by MRI in rats treated with TTFields and/or sorafenib; assay type: in vivo, Sprague Dawley rats
Description: Tumor volume was determined by MRI. […] In this experiment, the volume of the tumor was measured using MRI on day 6 (one day before treatment start) and day 14 (one day after the end of treatment); and each data point in FIG. 1A represents the volume of the tumor on day 14 divided by the volume of the tumor on day 6. Thus, numbers greater than 1 represent growth in the tumor volume, and numbers smaller than 1 represent a tumor that has shrunk between day 6 and day 14. In this figure, “*” represents p<0.1, “**” represents p<0.01, and “****” represents p<0.0001. […] FIG. 1B represents the volume of the tumor.
(§1) Male SD rats, 8-weeks of age (Envigo Ltd, Israel), were anesthetized by I.P. injection of Ketamine (75 mg/kg) and Xylazine (10 mg/kg)(FIG. 2). After loss of postural reflexes, the fur was removed from the upper abdominal area using a trimmer. The left lobe of the liver was surgically exposed and 10 μl of cell suspension containing 50,000 N1-S1 hepatocellular carcinoma cells in equal volumes of serum free medium and Matrigel (CORNING, Bedford, MA) were injected directly into the left lobe using a syringe with a 31-gauge needle. The peritoneum and abdominal muscles incisions were closed using surgical sutures and the skin were close by clips. The rats were allowed to recover for 6 days.
(§2) On day 6 all animals underwent a first MRI scan and were randomly divided into the following treatment groups:
(§3) Group I—rats were treated with sham heating electrodes and vehicle injection.
(§4) Group II—rats were treated with 150 kHz TTFields and vehicle injection.
Group III—rats were treated with 10 mg/kg/day Sorafenib.
Group IV—rats were treated with 150 kHz TTFields and 10 mg/kg/day Sorafenib.
On day 7, electrodes (TTFields or sham heating) were placed on the animals. The animals were treated for 6 days with TTFields or sham heat. […] Tumor volume were determined based on MRI scans on days […] after tumor implantation. […] Tumor volume was measured by manual segmentation of the tumor using ITK-SNAP version 3.6.0-rc1 free software. […]

N1S1 tumors = assay: Fibrosis evaluation (score and Masson Trichrome morphometry) of treated N1S1 tumors; assay type: in vivo, SD rats
Description: as §1, §2, §3, §4
Group III—rats were treated with 10 mg/kg/day Sorafenib. […]
On day 7, electrodes (TTFields or sham heating) were placed on the animals. […] Tumor volume were determined based on MRI scans on days […] after tumor implantation. […] Tumor volume was measured by manual segmentation of the tumor using ITK-SNAP version 3.6.0-rc1 free software. […]
Tumors were harvested for histological evaluation of the grade of fibrosis using a semi-quantitative evaluation scale. […] Masson Trichrome stained sections were analyzed for fibrosis, using a scoring grade scale and digital morphometry.
H&E stained sections were examined by one pathologist and scored by a semi-quantitative scoring system for the presence of pathological changes (FIGS. 3 and 3A), as follows: • Grade 0: no signs of fibrosis • Grade 1: very mild signs of fibrosis • Grade 2: mild signs of fibrosis • Grade 3: moderate signs of fibrosis • Grade 4: High grade of fibrosis • Grade 5: Very high grade of fibrosis […]
The percent of the stained areas (FIG. 3: top-right) out of the whole tissue (FIG. 3: top-right+bottom-left) was calculated as shown in FIG. 4.

SMILES: CNC(=O)c1cc(Oc2ccc(NC(=O)Nc3ccc(Cl)c(C(F)(F)F)c3)cc2)ccn1 [sorafenib]
- tumor volume ([1]; combination of TTFields (2.86 V/cm) and sorafenib (10 mg/kg/day)): synergistic decrease
- decrease in tumor volume ([1]; combination of TTFields and sorafenib, N1S1 tumors, FIG. 1): ≥ 10 fold
- fold increase in tumor volume (day 14 / day 6) ([1]; combination of TTFields at 150 kHz and sorafenib 10 mg/kg/day IP, MRI): significantly reduced
- fibrosis score (N1S1 tumors; TTFields in combination with sorafenib, relative to TTFields alone, evaluated by a pathologist): significantly reduced
- reduction in fibrotic area compared to control group (N1S1 tumors; combined treatment of 150 kHz TTFields and sorafenib 10 mg/kg/day): 20.8%
- decrease in fibrotic area relative to control (N1S1 tumors; sorafenib alone, 10 mg/kg/day, morphometry of fibrosis percent): 30.4%
